Publication PMC12427806, “Calpain-1 and Calpain-2 Promote Breast Cancer Metastasis” (Cells, 2025)
Where a SMILES comes first, the peptide text is derived from it. [ ]: non-standard residue; d: D form. The star is where a group is joined. 5FAM = O=C1OC2(c3ccc(O)cc3Oc3cc(O)ccc32)c2ccc(C(=O)*)cc21

Assays:
[1] = system: CAPNS1 KO MDA-MB-231 cells; test: Single-cell migration on collagen (IncuCyte video microscopy, DiPer MSD analysis), CAPNS1 KO cells; assay type: cell-based, human
Description: (§1) For the migration assay, plates were coated with 15 µg/mL rat tail collagen type 1 (BD-Biosciences, Franklin Lakes, NJ, USA). Cells were seeded at 1000 cells per well. Plates were imaged using the IncuCyte Live-Cell Analysis System (Essen Bioscience, Ann Arbor, MI, USA) every 10 min for 24 h. Cell migration was tracked using the “Track Object” program in Metamorph 7.8 (Molecular Devices, LLC., San Jose, CA, USA). The resulting coordinates were analyzed with the DiPer program to measure speed and directional persistence of migration. Experiments were conducted in triplicate, each with at least 20 cells per genotype. The results are presented as the mean ± standard error of the mean. […]
(§2) Migration propensity of calpain-deficient cells was measured by IncuCyte video microscopy of single-cell trajectories on a collagen substrate, which were then analyzed according to an established protocol using three measures of migration: (1) speed of migration (a raw value of displacement from frame to frame); (2) directionality (a ratio of cell displacement to path); and (3) mean square displacement (MSD, how much area a migrating cell has covered).
(§3) To evaluate the effect of this calpain inhibitor, we first measured MDA-MB-231 cancer cell migration in the presence of 4 µM mB27 (Figure 5a,b). […] A thorough quantification and statistical analysis of cell migration are presented in Supplementary Information 12.

[2] = system: MDA-MB-231 cells; test: Single-cell migration on collagen (IncuCyte video microscopy, DiPer MSD analysis), WT cells; assay type: cell-based, human; details: WT + mB27, 4 µM; Std. Error 0.6565; WT + vehicle slope 14.65
Description: as §1, §2, §3

[3] = system: WT MDA-MB-231 tumors; test: Orthotopic engraftment resect-and-wait model of mammary tumor growth and lung metastasis; assay type: in vivo, Rag2-/- IL2Rγc-/- mice; details: n = 10
Description: Cells were washed, counted, and resuspended in PBS to achieve a concentration of 1,000,000 cells in 40 µL and placed on ice and supplemented with Growth Factor Reduced Matrigel (Corning Inc., Corning, NY, USA, catalog number 354,230) in a 10:40 Matrigel/cell suspension ratio. The resulting mixture was maintained on ice until the engraftment. Matrigel was included in the engraftment suspension to promote initial cell retention in the engrafted bolus in the mammary fat pad and to ensure consistent tumor onset. While MDA-MB-231 cells can form tumors without matrix in Rag2^-/- IL2Rγc^-/- mice, the addition of Matrigel could reduce experimental variability and mimic the basement membrane or extracellular matrix components of the tumor microenvironment.
All animal procedures were approved by the university animal care committee in accordance with guidelines from the Canadian Council on Animal Care. […]
The wound clips were removed one week after the engraftment surgery, and the tumor size was measured daily until it reached 600 mm^3. […] When tumors reached the maximum volume (19 to 22 days after the engraftment surgery, determined individually for every mouse), they were resected by recovery surgery, and mice were then monitored for 12 days before being euthanized with CO2 and cervical dislocation and assessed for metastasis. […]

With `CC[C@H](C)[C@H](NC(=O)[C@H](Cc1ccc(O)cc1)NC(=O)[C@@H](NC(=O)[C@H](CO)NC(=O)[C@H](CO)NC(=O)[C@H](CCSC)NC(=O)[C@H]1CCCN1C(=O)[C@@H](CC(=O)O)NC(=O)c1ccc2c(c1)C(=O)OC21c2ccc(O)cc2Oc2cc(O)ccc21)[C@@H](C)O)C(=O)N[C@@H](CCC(=O)O)C(=O)N[C@@H](CCC(=O)O)C(=O)N[C@@H](CC(C)C)C(=O)NCC(=O)N[C@@H](CCCCN)C(=O)N[C@@H](CCCNC(=N)N)C(=O)N[C@@H](CCC(=O)O)C(=O)N[C@H](C(=O)N[C@H](C(=O)N[C@H](C(=O)N1CCC[C@H]1C(=O)N1CCC[C@H]1C(=O)N[C@@H](CCCCN)C(=O)N[C@@H](Cc1ccc(O)cc1)C(=O)N[C@@H](CCCNC(=N)N)C(=O)N[C@@H](CCC(=O)O)C(=O)N[C@@H](CC(C)C)C(=O)N[C@@H](CC(C)C)C(=O)N[C@@H](C)C(=O)N[C@@H](CCCNC(=N)N)C(=O)N[C@@H](CCCNC(=N)N)C(=O)N[C@@H](CCCNC(=N)N)C(=O)N[C@@H](CCCNC(=N)N)C(=O)N[C@@H](CCCNC(=N)N)C(=O)N[C@@H](CCCNC(=N)N)C(=O)N[C@H](CCCNC(=N)N)C(=O)N[C@H](CCCNC(=N)N)C(=O)N[C@H](CCCNC(=N)N)C(=O)O)[C@@H](C)CC)[C@@H](C)O)C(C)C` [mB27] (5FAM-[dD][dP]MSSTYIEELGKREVTIPPKYRELLARRRRRR[dR][dR][dR]-OH; N-terminus and C-terminus assumed) the “Best-fit slope of MSD” value ([1]; CAPNS1 KO + mB27, 4 µM, Std. Error 0.4558, CAPNS1 KO + vehicle slope 3.642) was 3.365, the “Effect of peptide on migration of CAPNS1 KO cells (in words)” value ([1]; CAPNS1 KO MDA-MB-231 cells, 4 µM peptide, ANCOVA p = 0.6134) was “no effect” and the “Best-fit slope of MSD” value [2] was 7.652. It also gave a Tumor growth rate ([3]; 5 mg/kg/day intraperitoneally for 14 days from 50 mm^3 to 600 mm^3 tumor volume, vehicle 0.431 ± 0.046, p = 0.8554) of 0.428 ± 0.024 mm diameter per day and a Lung metastasis ([3]; 5 mg/kg/day intraperitoneally for 14 days, tumor resection at 600 mm^3, lungs assessed 12 days later, vehicle 1.12 ± 1.35, p = 0.102 (not significant)) of 0.34 ± 0.20 metastases per mm^2.
